Source: patent US6617342B1, “Hypoglycemic sulfonyl pyrazolones and pyrazolines” (Eli Lilly and Company, priority 1999, dated 2003)

System: obese-diabetic viable yellow (AvY) mice
Assay: Demonstration of hypoglycemic efficacy: blood glucose after 14 days of compound admixed in diet
Format: in vivo
Settings: blood glucose at day 14 as percent of initial (day 0) value, male AvY mice
Method: Male obese-diabetic viable yellow (AvY) mice were divided into two groups of 6 each. One group was fed repelletized purina 5008 Chow and the second group was fed repelletized Purina 5008 Chow, admixed with varying doses of the candidate compound. Blood samples were taken before the experiment was initiated and 7 and 14 days after initiation. Body weight and food consumption were monitored. The blood glucose level after 7 or 14 days of treatment was measured and recorded as a percent of the initial value, compared to the untreated control (first) group. The results are presented in the table 1 below; and include the dose of the candidate compound as a weight percent of the amount incorporated into the diet. Also in the table is a representative value for a positive control (a known hypoglycemic agent as disclosed by T. Sohda, K. Mizuno, Y. Momose, H. Ikeda, T. Fujita, and K. Meguro, J. Med. Chem., 1992, 35, 2617) administered in the same way as a candidate compound of the present invention.
BG means blood glucose level; BG0 means blood glucose level at day zero and BG14 means blood glucose level at day 14 accordingly. Takeda “Compound 17” is disclosed by T. Sohda, K. Mizuno, Y. Momose, H. Ikeda, T. Fujita, and K. Meguro, J. Med. Chem., 1992, 35, 2617.

[1] = dose .03 weight percent in diet (Purina 5008 Chow)

O=c1ccn(S(=O)(=O)c2ccc3ccccc3c2)[nH]1 [Example 4, 2-Naphthylsulfonyl-pyrazolin-3-one]
% BG14 (BGO = 100) (dose .1 weight percent in diet (Purina 5008 Chow)): 94%

O=c1[nH][nH]cc1S(=O)(=O)Cc1ccc(OCCc2coc(-c3ccccc3)n2)cc1 [Example 2, 4-(4-[2-(2-Phenyl-4-oxazolyl)ethoxy]phenylmethylsulfonyl)-1H,2H-prazolin-3-one]
% BG14 (BGO = 100) [1]: 81%

O=c1[nH][nH]cc1S(=O)(=O)c1ccc(OCCc2coc(-c3ccccc3)n2)cc1 [Example 1, 4-(4-[2-(2-Phenyl-4-oxazolyl)ethoxy]phenylsulfonyl)-1H,2H-prazolin-3-one]
% BG14 (BGO = 100) [1]: 32%

3-(4-(2-Phenyl-4-oxazolyl)ethoxy)phenyl-4-methylsulfonyl-1H-1,2-pyrazoline [Example 3]
% BG14 (BGO = 100) (dose .01 weight percent in diet (Purina 5008 Chow)): 72%
